In brackets after ≈: the same amount, converted by molar mass. Like-named read-outs stand apart in the source and are kept apart here.
Experiments:
[1] = Dissolution of rifabutin in DMI or DMI/water with acid and dilution with aqueous solutions; assay type: physicochemical; settings: in DMI without water or acid; longer than plausibly acceptable
[2] = Preliminary assessment of solubility in solvents (24 h); assay type: physicochemical; settings: thermodynamic from solid, 24 h stirring at room temperature, read-out: Solubility (mg/ml) at 24 h
Description: After 24 h stirring at room temperature, samples were centrifuged, and the supernatant analyzed by HPLC.

[3] = in Ethanol (literature data); cited from earlier work
[4] = human, in vivo, cited from earlier work
[5] = HIV-infected patients, 300 mg/day (Hafner et al, 1998); cited from earlier work

For `CO[C@H]1/C=C/O[C@@]2(C)Oc3c(C)c(O)c4c(c3C2=O)C2=NC3(CCN(CC(C)C)CC3)NC2=C(NC(=O)/C(C)=C\C=C\[C@H](C)[C@H](O)[C@@H](C)[C@@H](O)[C@@H](C)[C@H](OC(C)=O)[C@@H]1C)C4=O` [rifabutin], the “Dissolution of rifabutin in DMI, concentration” value [1] was greater than 250 mg/mL, the solubility at 24 h ([2]; aqueous buffer, in Acetate buffer pH 4 (USP)) was 11.3 mg/mL (≈ 13300 µM) and the solubility at 24 h ([2]; aqueous buffer, in Borate buffer pH 10 (USP)) was 1.9 mg/mL (≈ 2240 µM). It also gave a solubility at 24 h ([2]; aqueous buffer, in Phosphate buffer pH 6 (USP)) of 0.3 mg/mL (≈ 354 µM), a solubility at 24 h ([2]; aqueous buffer, in Phosphate buffer pH 8 (USP)) of 0.2 mg/mL (≈ 236 µM) and a solubility at 24 h ([2]; aqueous with cosolvent or surfactant or cyclodextrin, in Povidone K12 (5% w/w in water)) of 0.5 mg/mL (≈ 590 µM). For the same compound, the solubility at 24 h ([2]; aqueous with cosolvent or surfactant or cyclodextrin, in Tween 80 (1% w/w in water)) was 1.3 mg/mL (≈ 1530 µM), the solubility at 24 h ([2]; organic solvent or mixture, in Dimethyl isosorbide (DMI)) was no less than 245 mg/mL and the solubility at 24 h ([2]; organic solvent or mixture, in Dimethylacetamide (DMA)) was no less than 204 mg/mL. For the same compound, the solubility at 24 h ([2]; organic solvent or mixture, in Glycerol) was 0.4 mg/mL (≈ 472 µM), the solubility at 24 h ([2]; organic solvent or mixture, in N-Methyl-2-pyrrolidone (NMP)) was no less than 190 mg/mL and the solubility at 24 h ([2]; organic solvent or mixture, in Polyethylene glycol 400 (PEG400)) was no less than 110 mg/mL. For the same compound, the solubility at 24 h ([2]; organic solvent or mixture, in Propylene glycol) was no less than 92 mg/mL, the solubility at 24 h ([2]; organic solvent or mixture, in Transcutol HP) was no less than 206 mg/mL and the solubility at 24 h ([2]; saline or isotonic, in Saline 0.9%) was 0.3 mg/mL (≈ 354 µM). The “Solubility (mg/ml) at 24 h” value [3] was 30 mg/mL (≈ 35400 µM), the “time at which Cmax is attained after oral administration” value ([4]; 300 mg) was “approximately 3 hours” and the “mean Cmax” value ([4]; po, 300 mg) was 375 ng/mL. The Cmax ([4]; po, 600 mg) was 400 to 700 ng/mL, the oral dose absorbed [4] was “at least 53%” and the “AUC at steady state” value [5] was 8600 ± 8200 ng·h/mL. The “Cmax at steady state” value [5] was 590 ± 330 ng/mL.

— patent US11344537B2 (BIOVERSYS AG, priority 2019, dated 2022)
